From US20260053836A1, “CHRONIC WOUND HEALING COMPOSITION AND APPLICATION THEREOF” (priority 2019, published 2026)

What was measured:
Staphylococcus aureus = settings: Guillermo et al., 1999; cited from earlier work
HaCaT cells = assay: Cell migration assay of HaCaT cells in high glucose culture; assay type: cell-based, human; settings: high glucose (25 mM), 48 hours, control group taken as 1
Protocol: Human dermal fibroblasts (HDF cells) or human keratinocytes (HuCaT cells) were cultured in a humid incubator at 37° C. in an environment of 5% carbon dioxide and […] and placed in Dulbecco's modified Eagle's medium (DMEM) supplemented with glucose, 10% fetal bovine serum, 100 IU/mL penicillin, 100 μg/mL streptomycin, 2 mM sodium pyruvate and 1% nonessential amino acids (NEAA). The medium was changed every two days. For subculture, cells were harvested and re-cultured at a 1:10 dilution after exposure to 0.1% Trypsin-EDTA mixture. The cells used in the study ranged from 12 to 40 passages. 24 hours before drug treatment, cells were seeded and left for 24 hours. The control group was maintained in the medium and […]. Under this culture condition, cell growth and differentiation are not affected.
HaCaT cells were cultured at 1×10^5 with addition of 25 mM glucose in a 24-well culture dish for 48 hours, and the following drugs were added to observe the cell migration state: • Con: the control group; • BO 18.8 μM+A 16.0 μM; • BSG 14.2 μM+A 16.0 μM; • BO 18.8 μM+BSG 14.2 μM; • All: A 16.0 μM+BO 18.8 μM+BSG 14.2 μM.

SMILES | antibacterial efficacy (Staphylococcus aureus) | cell migration (HaCaT cells)
C[C@@H]1O[C@@H](O[C@@H]2[C@@H](O)[C@H](OCCc3ccc(O)c(O)c3)O[C@H](CO)[C@H]2OC(=O)/C=C/c2ccc(O)c(O)c2)[C@H](O)[C@H](O)[C@H]1O [Acteosides, Acteoside] | good antibacterial efficacy | 
CC1(C)C2CCC1(C)C(O)C2 (stereo not drawn) [BO, Borneal] |  | no promoting effect
O=C(O)c1cc(O)c2c(c1)[O][Bi]([OH])[O]2 [BSG, Bismuth subgallate] |  | no promoting effect
